Tests used:
female BALB/c mice [1] = assay: IgA content in feces of mice fed saccharide-supplemented purified diet (ELISA); type: in vivo; details: for IgA content in feces: average of five mice
Experimental: To investigate immunomodulating effects of various saccharides, IgA contents in feces of mice administered saccharides were measured. After six-week-old female BALB/c mice were preliminarily grown for a week with AIN-93G, which is a standard growth purified diet for nutritional study using mice or rats introduced by American Institute of Nutrition in 1993, they were separated in groups of five mice each, and unlimitedly administered the test diets, which is made by supplementing 5 w/w % of the cyclic tetrasaccharide (produced in Example 2), 5 w/w % of nigerooligosaccharide (12.5 w/w % of “NISSHOKU TASTE OLIGO SYRUP”, containing 40% or more of nigerooligosaccharide on a dry solid basis, commercialized by Nihon Shokuhin Kako Co., Ltd.), or 5 w/w % of isomaltooligosaccharide (“ISOMALT 90” commercialized by Hayashibara Shoji, Inc.) to the same formula diet described above except the amount of corn starch was reduced by the relevant weight of the added test saccharide. As control, one group was administered with the standard growth purified diet (AIN-93G) without the test saccharides described above. After 1, 2, 3 and 4 weeks from the initial administration of the test or control diets, fresh feces were taken from each mouse and IgA content was measured by the ELISA method using anti-IgA antibody (MOUSE IgA ELISA QUANTITATION KIT produced by Bethyl Laboratories, Inc). The values expressed in percent in Table 1 mean the relative amounts with respect to control in each week.

female BALB/c mice [2] = assay: Analysis of cecal contents (pH, weight, IgA, IgG) of mice fed saccharide diets for 4 weeks; type: in vivo
Experimental: To investigate the immunomodulating effect of the various saccharides, IgA content and IgG content in the cecal contents of the mice administered saccharides were measured. After the mice fed on the purified diet containing the test saccharide or the control purified diet (AIN-93G) for 4 weeks in Experiment 1 were killed, their cecums were surgically removed. After the pH and weight of the cecum contents were measured, IgA content and IgG content in the cecal contents were measured. IgA content was measured by ELISA method using anti-IgA antibodies and IgG content was measured by ELISA method using anti-IgG antibodies (MOUSE IgG ELISA QUANTITATION KIT produced by Bethyl Laboratories, Inc) and the amounts of the antibodies per gram of the cecal contents were obtained.

Peyer's patch cells [3] = assay: IgA, IL-6 and TGF-β produced by Peyer's patch cells taken from mice administered the saccharides (ConA culture, ELISA); type: in vivo
Experimental: To investigate the immnomodulating effect of the various saccharides, the contents of IgA, IL-6 and TGF-βproduced by the Peyer's patch cells taken from the mice administered the saccharides. After the Peyer's patches taken from the mice administered with the purified diet containing the test saccharides or the control purified diet in Experiment 2 were cut by scissors, they were treated in 0.2 w/w % collagenase solution at 37° C. for 30 minutes. They were filtered through a cell strainer and the filtrate containing the cells were centrifuged to give the cell precipitates. They were suspended in 45 w/w % PARCOR (commercialized by Amersham, PLC), the cell suspensions were layered on 75 w/w % PARCOR and centrifuged for 10 minutes at 1,000 g. Cells floating at the interface between 45 w/w % PARCOR and 75 w/w % PARCOR were collected and suspended in RPM1164 medium containing 10% FCS and 10 mM HEPES to give the cell suspensions at a concentration of 1×10^6 cells/ml. They were seeded in 24-well microplates by 1 ml/well, added with 2 μg/m1 of concanavalin A, and cultured at 37° C. for 48 hours in atmosphere of 5% carbon dioxide. The culture supernatant was collected from each well and their IgA contents, TGF-βcontents or IL-6 contents were measured by ELISA method using anti-mouse-IgA antibody, anti-mouse-IL-6 antibody and anti-mouse-TGF-μ1 antibody, then the averages were calculated from the data of five mice. The values in Table 3 means relative amounts (%) to IgA, IL-6 or TGF-β amount produced in Peyer's patch cells taken from the control mice.

female BALB/c mice [4] = assay: Amounts of organic acids in cecal contents of mice ingesting the saccharides (ion chromatography); type: in vivo
Experimental: To investigate the effects of the various saccharides on the enteric environment of mice, the contents of organic acids in the cecal contents were measured. After the cecal contents taken from the mice administered the purified diet containing the test saccharides or the control purified diet in Experiment 2 were suspended in an adequate amount of purified water, their supernatants collected by centrifugation were filtered with membrane (pore size of 0.45 μm). The filtrates were subjected to an ion chromatoanalyzer IC500P (produced by Yokogawa Electric Corporation) loaded with precolumn PCS5-052 and separation column SCS5-252, and eluted with 2 mM sulfuric acid (1.0 ml/min) to analyze the amounts of organic acids. The values expressed in percent in Table 4 mean the relative amounts of each organic acid in the cecal contents to those of the control mice.

Peyer's patch cells [5] = assay: Effects of saccharides on IFN-γ and IL-4 production of Peyer's patch cells in vitro (ELISA); type: cell-based, mice; details: saccharide 0.1 mg/ml; for Relative amount of IFN-γ / Relative amount of IL-4: 72 hours, relative to control; for IFN-γ production by stimulation of concanavalin A (in words): in vitro
Experimental: To investigate direct effects of various saccharides on Peyer's patch cells, the amounts of IFN-γ and IL-4 produced in Peyer's patch cells taken from mice by adding various kinds of saccharide in an in vitro experiment. After six-week-old female BALB/c mice were preliminarily grown for a week with a standard growth purified diet (AIN-93G), their Peyer's patch cells were collected according to the method of Experiment 3. The cell suspension at a concentration of 1×10^6 cells/ml was prepared with RPMI1640 medium containing 10% FCS and 10 mM HEPES and seeded in 24-well microplates by 1 ml/well. After the test saccharides (the cyclic tetrasaccharide, nigerose or isomaltose) were added in an amount of 0.1 mg/ml and lipopolysaccharide (LPS) or concanavalin A (ConA) of 2 μg/ml, they were cultured at 37° C. for 72 hours in an atmosphere of 5% carbon dioxide. The amounts of IFN-γin the supernatants were measured by the ELISA method using anti-mouse- IFN-γ antibodies (MURINE IFN-γELISA DEVELOPMENT KIT, produced by PeproTech, Inc.), and the amounts of IL-4 were measured by the ELISA method using anti-mouse-IL-4 antibodies (Mouse IL-4 ELISA DEVELOPMENT KIT, produced by Genzyme-Techne). As a control, the amounts of IFN-γ and IL-4 produced in Peyer's patch cells cultured with the medium without adding the test saccharides by the same way described above. The values in Table 5 were shown as the relative amounts (%) to control.

[6] = after 4 weeks on 5 w/w % saccharide diet
[7] = after 4 weeks on 5 w/w % saccharide diet, per gram of cecal contents
[8] = cells from mice administered the saccharide
[9] = relative to Peyer's patch cells of control mice, 2 μg/ml concanavalin A, 48 hours, average of five mice
[10] = cecal contents, 4 weeks on 5 w/w % saccharide diet

## OC[C@H]1O[C@@H]2OC[C@H]3O[C@H](O[C@@H]4[C@@H](O)[C@@H](OC[C@H]5O[C@H](O[C@H]([C@H]2O)[C@@H]1O)[C@H](O)[C@@H](O)[C@@H]5O)O[C@H](CO)[C@H]4O)[C@H](O)[C@@H](O)[C@@H]3O [Cyclic tetrasaccharide, cyclo{>6)-α-D-glucopyranosyl-(1>3)-α-D -glucopyranosyl-(1>6)-α-D-glucopyranosyl-(1>3)-α-D -glucopyranosyl-(1>}]
Female BALB/c mice [1]; First week (age in 8 weeks), 5 w/w % saccharide in AIN-93G diet
  IgA content in feces: 5.61 mg/g
Female BALB/c mice [1]; First week, 5 w/w % saccharide in diet
  IgA content in feces, relative amount with respect to control: 106%
Female BALB/c mice [1]; Fourth week (age in 11 weeks), 5 w/w % saccharide in diet
  IgA content in feces: 7.09 mg/g
Female BALB/c mice [1]; Fourth week, 5 w/w % saccharide in diet
  IgA content in feces, relative amount with respect to control: 328%
Female BALB/c mice [1]; Second week (age in 9 weeks), 5 w/w % saccharide in diet
  IgA content in feces: 8.47 mg/g
Female BALB/c mice [1]; Second week, 5 w/w % saccharide in diet
  IgA content in feces, relative amount with respect to control: 214%
Female BALB/c mice [1]; Third week (age in 10 weeks), 5 w/w % saccharide in diet
  IgA content in feces: 7.57 mg/g
Female BALB/c mice [1]; Third week, 5 w/w % saccharide in diet
  IgA content in feces, relative amount with respect to control: 346%
Female BALB/c mice [1]; added in the purified diet
  IgA contents in feces of the mice (in words): increased
Female BALB/c mice [2]; 4 weeks on saccharide diet
  IgA contents in cecal contents (in words): highest increase
Female BALB/c mice [2]; [6]
  Weight of cecal contents: 169 mg
  pH of cecal contents: 7.16
Female BALB/c mice [2]; [7]
  IgA content in cecal contents: 4.4 mg/g
  IgG content in cecal contents: 85 mg/g
Peyer's patch cells [3]; [8]
  IgA secretion in Peyer's patch cells (in words): increased
  production of IL-6 in Peyer's patch cells (in words): increased
  production of TGF-β in Peyer's patch cells (in words): increased
Peyer's patch cells [3]; [9]
  Relative IL-6 content: 326%
  Relative IgA content: 209%
  Relative TGF-β content: 142%
Female BALB/c mice [4]; cecal contents
  Acetic acid, relative amount to control mice: (94%)
  Formic acid, relative amount to control mice: (258%)
  Isobutyric acid, relative amount to control mice: (70%)
  Isovaleric acid, relative amount to control mice: (73%)
  Lactic acid, relative amount to control mice: (1000%)
  Malic acid, relative amount to control mice: (179%)
  Propionic acid, relative amount to control mice: (100%)
  Succinic acid, relative amount to control mice: (267%)
  Total organic acids, relative amount to control mice: (109%)
  n-Butyric acid, relative amount to control mice: (206%)
  n-Valeric acid, relative amount to control mice: (73%)
Female BALB/c mice [4]; [10]
  Amount of organic acid: Acetic acid: 63 µmol/g
  Amount of organic acid: Formic acid: 0.82 µmol/g
  Amount of organic acid: Isobutyric acid: 1.9 µmol/g
  Amount of organic acid: Isovaleric acid: 2.4 µmol/g
  Amount of organic acid: Lactic acid: 4.2 µmol/g
  Amount of organic acid: Malic acid: 1.5 µmol/g
  Amount of organic acid: Propionic acid: 12 µmol/g
  Amount of organic acid: Succinic acid: 5.6 µmol/g
  Amount of organic acid: Total organic acids: 106 µmol/g
  Amount of organic acid: n-Butyric acid: 14 µmol/g
  Amount of organic acid: n-Valeric acid: 0.87 µmol/g
Female BALB/c mice [4]; mouse, in vivo
  lactic acid content in cecal contents (in words): increased
Peyer's patch cells [5]; ConA 2 μg/ml
  Relative amount of IFN-γ: 269%
  Relative amount of IL-4: 96%
Peyer's patch cells [5]; LPS 2 μg/ml
  Relative amount of IFN-γ: 103%
  Relative amount of IL-4: 101%
Peyer's patch cells [5]
  IFN-γ production by stimulation of concanavalin A (in words): accelerated

## OC[C@H]1O[C@H](O[C@H]2[C@H](O)[C@@H](CO)OC(O)[C@@H]2O)[C@H](O)[C@@H](O)[C@@H]1O (stereo partly shown) [Nigerose, nigerose]
Peyer's patch cells [5]; ConA 2 μg/ml
  Relative amount of IFN-γ: 63%
  Relative amount of IL-4: 100%
Peyer's patch cells [5]; LPS 2 μg/ml
  Relative amount of IFN-γ: 104%
  Relative amount of IL-4: 99%
Peyer's patch cells [5]
  IFN-γ production by stimulation of concanavalin A (in words): suppressed

## OC[C@H]1O[C@H](OC[C@H]2OC(O)[C@H](O)[C@@H](O)[C@@H]2O)[C@H](O)[C@@H](O)[C@@H]1O (stereo partly shown) [Isomaltose, isomaltose]
Peyer's patch cells [5]; ConA 2 μg/ml
  Relative amount of IFN-γ: 53%
  Relative amount of IL-4: 100%
Peyer's patch cells [5]; LPS 2 μg/ml
  Relative amount of IFN-γ: 100%
  Relative amount of IL-4: 97%
Peyer's patch cells [5]
  IFN-γ production by stimulation of concanavalin A (in words): suppressed

Reference: US7973021B2, “Immunomodulating agent in gut” (Kabushiki Kaisha Hayashibara Seibutsu Kagaku Kenkyujo, priority 2005, dated 2011)
